Where a name gives a salt, the structure may show the parent alone.
biological target: T1, protein farnesyltransferase (Rattus norvegicus, UniProt Q02293+Q04631); assay: Inhibition of farnesyltransferase (scintillation proximity assay, rat brain enzyme, biotin-K Ras B fragment substrate); assay type: biochemical; settings: 1 × 10^-5 M (Table 1)
T1 construct: The enzyme is purified according to Reiss, Y., et al., Cell, 62: 81-88 (1990), utilizing steps one through three; from tissue; host or cells: rat brain
Outline: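 Enzyme from rat brain, partly purified (steps one to three), assayed by SPA kit using 0.1 mM final biotin-K Ras B peptide as prenyl acceptor rather than biotin-lamin. Activity given as percent inhibition.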

T1 sequence (Q02293 whole entry, the tested form may be a part, one chain of several): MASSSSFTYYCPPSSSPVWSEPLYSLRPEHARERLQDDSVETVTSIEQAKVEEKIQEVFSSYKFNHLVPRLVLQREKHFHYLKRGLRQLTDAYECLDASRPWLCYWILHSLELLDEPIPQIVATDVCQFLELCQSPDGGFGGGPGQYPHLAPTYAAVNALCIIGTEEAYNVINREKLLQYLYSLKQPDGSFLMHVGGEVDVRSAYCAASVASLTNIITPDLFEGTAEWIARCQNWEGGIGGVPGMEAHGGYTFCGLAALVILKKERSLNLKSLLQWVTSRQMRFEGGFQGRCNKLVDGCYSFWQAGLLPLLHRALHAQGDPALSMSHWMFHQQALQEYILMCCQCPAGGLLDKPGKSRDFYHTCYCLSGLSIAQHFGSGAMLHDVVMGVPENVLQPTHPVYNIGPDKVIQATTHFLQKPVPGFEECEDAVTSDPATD

Row | SMILES | % inhibition of farnesyltransferase at 1 × 10^-5 M [%]
1 | CSCC[C@H](NC(=O)c1ccc(CNc2ccc3c(c2)CCC3)cc1-c1ccccc1)C(=O)O [Example 705] | 72
2 | CSCC[C@H](NC(=O)c1ccc(CN[C@H](CC2CCCCC2)[C@H](O)[C@H](O)CC(C)C)cc1-c1ccccc1)C(=O)O [Example 715] | 67
3 | CSCC[C@H](NC(=O)c1ccc(CNC(CO)C(O)c2ccccc2)cc1-c1ccccc1)C(=O)O (some centres unmarked) [Example 713] | 40
4 | COc1cc2c(cc1OC)C(CNCc1ccc(C(=O)N[C@@H](CCSC)C(=O)O)c(-c3ccccc3)c1)=CC(C1CCCCC1)C2 (some centres unmarked) [Example 659] | 55
5 | CSCC[C@H](NC(=O)c1ccc(CNc2cccc(O)c2)cc1-c1ccccc1)C(=O)O [Example 676] | 76
6 | CSCC[C@H](NC(=O)c1ccc(CNCC(C)(C)CN(C)C)cc1-c1ccccc1)C(=O)O [Example 639] | 44

same assay, conditions: 1 × 10^-6 M (Table 2)

Row | SMILES | % inhibition of farnesyltransferase at 1 × 10^-6 M [%]
7 | CSCC[C@H](NC(=O)c1ccc(CNc2ccccc2CCO)cc1-c1ccccc1)C(=O)O [Example 671] | 36
8 | CSCC[C@H](NC(=O)c1ccc(NC(=O)[C@@H](N)COCc2ccccc2)cc1-c1ccccc1)C(=O)O [Example 503] | 57
9 | CSCCC(CO)NCc1ccc(C(=O)N[C@@H](CCSC)C(=O)O)c(-c2ccccc2)c1 (some centres unmarked) [Example 633] | 32
10 | CSCC[C@H](NC(=O)c1ccc(CNCc2ccccc2)cc1-c1ccccc1)C(=O)O.Cl [Example 936] | 69
11 | CSCC[C@H](NC(=O)c1ccc(COCc2ccc(CN(C)C)o2)cc1-c1ccccc1C)C(=O)O [Example 435] | 96
12 | CSCC[C@H](NC(=O)c1ccc(CN[C@H](CO)Cc2ccccc2)cc1-c1ccccc1C)C(=O)O [Example 727] | 95
13 | CSCC[C@H](NC(=O)c1ccc(OCCCOc2ccccc2)cc1-c1ccccc1C)C(=O)O [Example 566] | 98
14 | CSCC[C@H](NC(=O)c1ccc(CNc2ccc(C(O)(C(F)(F)F)C(F)(F)F)cc2)cc1-c1ccccc1)C(=O)O [Example 693] | 53
15 | CSCC[C@H](NC(=O)c1ccc(CS[C@H](CO)Cc2ccccc2)cc1-c1ccccc1)C(=O)O [Example 545] | 88
16 | CSCC[C@H](NC(=O)c1ccc(CN(Cc2ccccc2)c2ccccc2SC)cc1-c1ccccc1C)C(=O)[O-].[Li+] [Example 850] | 90

same assay, conditions: 1 × 10^-7 M (Table 3)

Row | SMILES | % inhibition of farnesyltransferase at 1 × 10^-7 M [%]
17 | CCS(=O)(=O)C[C@H](CC1CCCCC1)NCc1ccc(C(=O)N[C@@H](CCS(C)(=O)=O)C(=O)O)c(-c2ccccc2C)c1 [Example 621] | 98
18 | CSCC[C@H](NC(=O)c1ccc(CN[C@H](CSc2ccccc2)CC2CCCCC2)cc1-c1ccccc1C)C(=O)O [Example 623] | 96
19 | C=C(C)C1CC=C(COCc2ccc(C(=O)N[C@@H](CCSC)C(=O)O)c(-c3ccccc3C)c2)CC1 (some centres unmarked) [Example 521] | 94
20 | CSCC[C@H](NC(=O)c1ccc(CN[C@H](CO)C2CCCCC2)cc1-c1ccccc1C)C(=O)O [Example 520] | 97
21 | CSCC[C@H](NC(=O)c1ccc(CSc2nc(C)cc(C)n2)cc1-c1ccccc1C)C(=O)O [Example 743] | 51
22 | CSCC[C@H](NC(=O)c1ccc(COCc2ccc(C(C)C)cc2)cc1-c1ccccc1C)C(=O)[O-].[Li+] [Example 940] | 92
23 | CSCC[C@H](NC(=O)c1ccc(COCCCCC2CCCCC2)cc1-c1ccccc1C)C(=O)O [Example 600] | 93
24 | CSCC[C@H](NC(=O)c1ccc(CNCCc2c[nH]c3ccccc23)cc1-c1ccccc1C)C(=O)O [Example 519] | 89
25 | CSCC[C@H](NC(=O)c1ccc(COCc2cnco2)cc1-c1ccccc1C)C(=O)[O-].[Li+] [Example 891] | 94
26 | CCCCC(OCc1ccc(C(=O)N[C@@H](CCSC)C(=O)[O-])c(-c2ccccc2C)c1)c1ccco1.[Li+] (some centres unmarked) [Example 825] | 79
27 | CSCC[C@H](NC(=O)c1ccc(COCc2ccccc2)cc1-c1ccccc1C)C(=O)[O-].[Li+] [Example 571] | 88

same assay, conditions: 1 × 10^-8 M (Table 4)

Row | SMILES | % inhibition of farnesyltransferase at 1 × 10^-8 M [%]
28 | CSCC[C@H](NC(=O)c1ccc(CN(Cc2ccccc2)c2cccc(C(C)=O)c2)cc1-c1ccccc1C)C(=O)O [Example 845] | 85
29 | CSCC[C@H](NC(=O)c1ccc(CO[C@H](CSC)CC2CCCCC2)cc1-c1ccccc1C)C(=O)O [Example 882] | 79
30 | CSCC[C@H](NC(=O)c1ccc(CN(Cc2ccccc2)c2ccc([N+](=O)[O-])cc2)cc1-c1ccccc1C)C(=O)O [Example 843] | 96
31 | CCCCC(Cc1ccccc1Cl)OCc1ccc(C(=O)N[C@@H](CCSC)C(=O)O)c(-c2ccccc2C)c1 (some centres unmarked) [Example 943] | 79
32 | CSCC[C@H](NC(=O)c1ccc(CN(C)CCC2CCCCC2)cc1-c1ccccc1C)C(=O)[O-].[Li+] [Example 608] | 91
33 | CCCCC(OCc1ccc(C(=O)N[C@@H](CCSC)C(=O)[O-])c(-c2ccccc2C)c1)c1ccc(-c2ccc(Cl)cc2)o1.[Li+] (some centres unmarked) [Example 826] | 92
34 | CSCC[C@H](NC(=O)c1ccc(CN(Cc2ccc3c(c2)OCO3)c2cnccn2)cc1-c1ccccc1C)C(=O)O [Example 838] | 92

same assay, conditions: read-out: % inhibition at 0.01 μM (**); Table 6, ** = 0.01 μM (footnote); title prints 0.01 mM

Row | SMILES | inhibition at 0.01 µM [%]
35 | CSCC[C@H](NC(=O)c1ccc(CN2CCC[C@@H]2COCC2CCCCC2)cc1-c1ccccc1C)C(=O)O [Example 1119, N-[4-(2-cyclohexylmethoxymethylpyrrolidin-1-ylmethyl)-2-(2-methylphenyl)benzoyl]methionine] | 84
36 | CSCC[C@H](NC(=O)c1ccc(CN2CC[C@H]2COCC2CCCCC2)cc1-c1ccccc1C)C(=O)O [Example 1114, N-[4-(2(S)-cyclohexylmethoxymethylazetidin-1-ylmethyl)-2-(2-methylphenyl)benzoyl]methionine] | 83
37 | CSCC[C@H](NC(=O)c1ccc(CN2CCSC[C@H]2COCC2CCCCC2)cc1-c1ccccc1C)C(=O)O [Example 1111, N-[4-(3(R)-cyclohexylmethoxymethylthiomorpholin-4-ylmethyl)-2-(2-methylphenyl)benzoyl]methionine] | 63

same assay, conditions: read-out: % inhibition at 0.1 μM (*); Table 6, * = 0.1 μM (footnote); title prints 0.1 mM

Row | SMILES | inhibition at 0.1 µM [%]
38 | CSCC[C@H](NC(=O)c1ccc(Cc2nnn(Cc3ccccc3)n2)cc1-c1ccccc1C)C(=O)O [Example 1101, N-[4-(2-benzyltetrazol-5-ylmethyl)-2-(2-methylphenyl)benzoyl]methionine] | 86

same assay, conditions: read-out: % inhibition of farnesyltransferase at 1 × 10^-6 M; 1 × 10^-6 M (Table 2)

Row | SMILES | inhibition at 1 µM [%]
39 | CSCC[C@H](NC(=O)c1ccc(-c2cccc(-c3ccccc3)c2)cc1-c1ccccc1C)C(=O)O [Example 787, N-[4-(3-phenylphenyl)-2-(2-methylphenyl)benzoyl]methionine lithium salt] | 70
40 | CSCC[C@H](NC(=O)c1ccc(C=CCCCc2ccccc2)cc1-c1ccccc1C)C(=O)O [Example 480, N-[4-(5-phenylpent-1-enyl)-2-(2-methylphenyl)benzoyl]methionine] | 87
41 | Cc1ccccc1-c1cc(CN(C2CC2)C(C)(C)Cc2ccccc2)ccc1C(=O)N[C@@H](CCS(C)(=O)=O)C(=O)O [Example 319] | 98
42 | CSCC[C@H](NC(=O)c1ccc(CC(Cc2ccccc2)c2ccccc2)cc1-c1ccccc1C)C(=O)O (some centres unmarked) [Example 572, N-[4-(2,3-diphenylpropan-1-yl)-2-(2-methylphenyl)benzoyl]methionine lithium salt] | 91
43 | CSCC[C@H](NC(=O)c1ccc(CN(C(C)C)C2(Cc3ccccc3)CCCC2)cc1-c1ccccc1C)C(=O)O [Example 343] | 72
44 | CSCC[C@H](NC(=O)c1ccc(CN(C(C)C)C2(CC3CCCCC3)CCC2)cc1-c1ccccc1C)C(=O)O [Example 332] | 26
45 | Cc1ccccc1-c1cc(CN(C(C)C)C2(Cc3ccccc3)CC2)ccc1C(=O)N[C@@H](CCS(C)(=O)=O)C(=O)O [Example 327] | 97
46 | CSCC[C@H](NC(=O)c1ccc(CN2CCN(c3ccccc3)CC2)cc1-c1ccccc1C)C(=O)O [Example 867, N-[4-(4-phenylpiperazin-1-ylmethyl)-2-(2-methylphenyl)benzoyl]methionine] | 71
47 | CSCC[C@H](NC(=O)c1ccc(/C=C/c2ccc(Oc3ccccc3)nn2)cc1-c1ccccc1C)C(=O)O [Example 810, N-[4-(2-(3-phenoxypyridazin-6-yl)ethen-1-yl)-2-(2-methylphenyl)benzoyl]methionine lithium salt] | 89
48 | CCCCON(CCC1CCCCC1)Cc1ccc(C(=O)N[C@@H](CCS(C)(=O)=O)C(=O)O)c(-c2ccccc2C)c1 [Example 298] | 43

same assay, conditions: read-out: % inhibition of farnesyltransferase at 1 × 10^-7 M; 1 × 10^-7 M (Table 3)

Row | SMILES | inhibition at 0.1 µM [%]
49 | CSCC[C@H](NC(=O)c1ccc(CN2CCC[C@@H]2COCc2ccccc2)cc1-c1ccccc1C)C(=O)O [Example 993, N-[4-(2-benzyloxymethylpyrrolidin-1-ylmethyl)-2-(2-methylphenyl)benzoyl]methionine] | 90
50 | CSCC[C@H](NC(=O)c1ccc(CCc2ccc(Oc3ccccc3)cc2)cc1-c1ccccc1C)C(=O)O [Example 462, N-[4-(2-(4-phenoxyphenyl)ethyl)-2-(2-methylphenyl)benzoyl]methionine lithium salt] | 91

Source: patent publication US6221865A, “Inhibitors of protein isoprenyl transferases” (priority 1998, dated 2001)
